The conditions of series [1]: clinical use as cholinesterase inhibitor; cited from earlier work.
Series [2] has as its system scopolamine hydrobromide induced memory acquired disorder in mice. Nature of the series: Step-down test. The series is classed as in vivo, Kunming mice. To be noted: 0.1 mg/kg. As for the experimental part:
Mice were randomly divided into 5 groups, namely, normal control group, model group, low dosage group, high dosage group, positive control drug Huperzine A group (0.1 mg/kg). The mice were intragastrically administered once daily (0.2 mL/10 g). After 30 consecutive days, except the normal control group, the memory acquired disorder model of mice was replicated respectively with […] of scopolamine hydrobromide, and the learning performance of mice was determined with the step-down test.
(§1) In accordance with technical requirements including “technical specifications of health food inspection and evaluation”, the dosage was calculated by conversion of the intended clinical daily dosage on the basis of the body surface area. When orally administered to mice, low and high dosages were arranged for each sample, respectively, which correspond to about 10 and 20 times of intended daily dosage for adults. Namely: low dosage group (1.3 g/kg), high dosage group (2.6 g/kg).
The time of the first jumping of mice (i.e., latency) and the times of jumping of mice within 5 minutes (i.e., errors times) were tested and recorded with jumping apparatus, and the latency and error times were used as the investigation indexes of the experiment.
60 screened healthy adult Kunming mice were used, with body weight (20-24) g, male, 12 […] in each group. Mice were randomly divided into 5 groups, namely, normal control group (C), model group (M), low dosage group (1.3 g/kg), high dosage (2.6 g/kg), positive control drug Huperzine A group (0.1 mg/kg). Except that the normal control group and model group were intragastrically administered with 0.5% CMCNA (0.2 mL/10 g), other groups were intragastrically administered with corresponding drugs once daily for 30 consecutive days. Training was started 1 h after administration in the morning on day 30. Except the normal control group, the memory acquired disorder model of mice was replicated respectively with 2 mg/kg scopolamine hydrobromide 20 minutes before training. Each group was administered in parallel, and the learning performance of mice was determined by step-down test. […]
(1) adaptive period: the animals were placed on the platform, at that time the electric fence was not energized, the latency of jumping down the platform was recorded, the animals were allowed to freely explore 10 s in the test box after jumping down the platform, and were then returned to the cage; […]
The learning performance was tested after 24 h. The time of the first jumping of mice (i.e., latency) and the times of jumping of mice within 5 minutes (i.e., errors times) were tested and recorded with jumping apparatus, and the latency and error times were used as the investigation indexes of the experiment.

The subject of series [3] is scopolamine memory acquired disorder model of mice. Nature of the series: Morris water maze, orientation navigation test. The series is classed as in vivo. Particulars: 0.1 mg/kg. The procedure:
(§2) Mice were randomly divided into 5 groups evenly, namely, normal control group, model group, low dosage group, high dosage group, positive control drug Huperzine A group (0.1 mg/kg). The mice were intragastrically administered once daily (0.2 mL/10 g). After 30 consecutive days, except the normal control group, the memory acquired disorder model of mice was replicated respectively with scopolamine, and the learning performance of mice was determined with the Morris water maze test (scopolamine-induced orientation navigation and spatial memory experiment).
as §1
(§3) As for the positive control drug Huperzine A, the clinical adult dosage is about 0.4 mg/day, and the dosage for mice is 0.06 mg/kg, which is calculated by conversion on the basis of the body surface area. 0.1 mg/kg was used in the present experiment.
(§4) Morris water maze test was carried out according to the method in references. The orientation navigation test was started from the 25th day, and lasted for 4 consecutive days. The time of finding the platform of mice within 90 s (the escape latency), swimming distance, the swimming time proportion in the quadrant of the original platform, times of crossing the location of the original platform (i.e., shuttle times), and the time of first arrival at the original platform were recorded.
(§5) Mice were randomly divided into 5 groups, namely, normal control group, model group, low dosage group (1.3 g/kg), high dosage group (2.6 g/kg), positive control drug Huperzine A group (0.1 mg/kg). The mice were intragastrically administered once daily (0.2 mL/10 g). After 30 consecutive days, except the normal control group, the memory acquired disorder model of mice was replicated respectively with scopolamine, and the learning performance of mice was determined with the Morris water maze test (scopolamine-induced orientation navigation and spatial memory experiment).
(§6) In this example, respective groups of animals were adaptively fed for 3 days before intragastrical administration. The normal control group and model control group were intragastrically administered once daily with equal volume of 0.5% CMCNA, respectively. The administration was carried out with a volume of 0.2 mL/10 g body weight for 30 consecutive days. Morris water maze test was carried out according to the method in literatures. The orientation navigation test was started from the 25th day, and lasted for 4 days. The time of finding the platform of mice within 90 s (the escape latency), swimming distance, the swimming time proportion in the quadrant of the original platform, times of crossing the location of the original platform (i.e., shuttle times), and the time of first arrival at the original platform were recorded.

Series [4] relates to scopolamine hydrobromide-induced mice memory acquired disorder model. Briefly: Morris water maze, space exploration test. The series is classed as in vivo. Particulars: 0.1 mg/kg. As for the experimental part: as §2, §1, §3, §4, §5, §6

Structures are written as SMILES.

The text below walks through data of patent US10376552B2, “Memory improving composition comprising arillus longan, semen nelumbinis, poria and semen juglandis” (priority 2015, dated 2019).

As for `C/C=C1\[C@H]2C=C(C)C[C@]1(N)c1ccc(=O)[nH]c1C2` [Huperzine A], the side-effects after ingestion entry in series [1] is “nausea, dizziness, sweating, abdominal pain, and blurred vision”. In addition, the Latency in series [2] is 146.20 ± 99.97 s. In series [2] (p<0.05), the “error times compared with the model group” value was “significantly reduced” and the “latency compared with the model group” value is “significantly prolonged”. The molecule further showed an Error times in series [2] (within 5 minutes) of 1.00 ± 0.82. In series [3] (Day 1), this molecule yielded a swimming distance of 892.9 ± 226.6 cm and a swimming latency of 68.3 ± 15.6 s. In series [3] (Day 2), this molecule showed a swimming distance of 747.2 ± 93.5 cm and a swimming latency of 59.1 ± 13.8 s. Moreover, in series [3] (Day 3), the swimming distance is 683.3 ± 112.8 cm and the swimming latency was 56.3 ± 13.1 s. Further, in series [3] (Day 4), the swimming distance is 669.6 ± 128.3 cm and the swimming latency stood at 48.8 ± 11.1 s. For the same molecule, in series [4], the Shuttle times is 2.2 ± 0.5, the “Time proportion of crossing the original quadrant” value worked out at 22.6 ± 7.9% and the “time of first arrival at the platform” value turned out to be 27.0 ± 12.1 s. Further, in series [4] (p<0.05), the “time of first arrival at the platform” value is “significantly prolonging” and the “times of crossing the location of the original platform” value is reported as “significantly decreased”.
